# Measured values reported in PubChem BioAssay AID248 (DTP/NCI, 2004).
# “And” between values parts separate entries of the source, which are not always exact repeats. Equal values may be shown once. Inconclusive results and toxic doses are left out.
# System: L1210 leukemia ip in BDF1 mice, survival T/C
# Experiment: NCI In Vivo Anticancer Drug Screen. Data for tumor model L1210 Leukemia (intraperitoneal) in B6D2F1 (BDF1) mice
# Settings: endpoint: mean survival time, higher = longer survival
# Outline: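 Antitumor effect is assessed in tumor-bearing animals. Survival in the compound arm is compared with a vehicle-dosed control arm and expressed as their quotient.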
# [1] = dose: 100.0 mg/kg/injection, schedule: Q01DX009 (ip), vehicle: saline with Tween-80
# [2] = dose: 100.0 mg/kg/injection, schedule: Q04DX003 (ip), vehicle: saline with Tween-80
# [3] = dose: 200.0 mg/kg/injection, schedule: Q01DX009 (ip), vehicle: saline with Tween-80
# [4] = dose: 200.0 mg/kg/injection, schedule: Q04DX003 (ip), vehicle: saline with Tween-80
# [5] = dose: 400.0 mg/kg/injection, schedule: Q04DX003 (ip), vehicle: saline with Tween-80
# [6] = dose: 100.0 mg/kg/injection, schedule: Q01DX009 (ip), vehicle: Klucel (hydroxypropylcellulose) (HPC)
# [7] = dose: 200.0 mg/kg/injection, schedule: Q01DX009 (ip), vehicle: Klucel (hydroxypropylcellulose) (HPC)
# [8] = dose: 100.0 mg/kg/injection, schedule: Q04DX002 (ip), vehicle: saline with Tween-80
# [9] = dose: 200.0 mg/kg/injection, schedule: Q04DX002 (ip), vehicle: saline with Tween-80
# [10] = dose: 400.0 mg/kg/injection, schedule: Q04DX002 (ip), vehicle: saline with Tween-80
# [11] = dose: 400.0 mg/kg/injection, schedule: Q01DX009 (ip), vehicle: saline with Tween-80
# [12] = dose: 100.0 mg/kg/injection, schedule: Q01DX001 (ip), vehicle: saline
# [13] = dose: 200.0 mg/kg/injection, schedule: Q01DX001 (ip), vehicle: saline
# [14] = dose: 400.0 mg/kg/injection, schedule: Q01DX001 (ip), vehicle: saline
# [15] = dose: 100.0 mg/kg/injection, schedule: Q04DX002 (ip), vehicle: Klucel (hydroxypropylcellulose) (HPC)
# [16] = dose: 200.0 mg/kg/injection, schedule: Q04DX002 (ip), vehicle: Klucel (hydroxypropylcellulose) (HPC)
# [17] = dose: 400.0 mg/kg/injection, schedule: Q04DX002 (ip), vehicle: Klucel (hydroxypropylcellulose) (HPC)
# [18] = dose: 100.0 mg/kg/injection, schedule: Q04DX003 (ip), vehicle: Klucel (hydroxypropylcellulose) (HPC)
# [19] = dose: 200.0 mg/kg/injection, schedule: Q04DX003 (ip), vehicle: Klucel (hydroxypropylcellulose) (HPC)
# [20] = dose: 400.0 mg/kg/injection, schedule: Q04DX003 (ip), vehicle: Klucel (hydroxypropylcellulose) (HPC)
smiles,measurement,setting,value
[I][Sn]([c]1ccccc1)([c]1ccccc1)[c]1ccccc1,T/C,"dose: 0.25 mg/kg/injection, schedule: Q01DX009 (ip), vehicle: Klucel (hydroxypropylcellulose) (HPC)",93 % of control
same,T/C,"dose: 0.5 mg/kg/injection, schedule: Q01DX009 (ip), vehicle: Klucel (hydroxypropylcellulose) (HPC)",101 % of control
same,T/C,"dose: 1.0 mg/kg/injection, schedule: Q01DX009 (ip), vehicle: Klucel (hydroxypropylcellulose) (HPC)",97 % of control
CNc1c(Cl)c(Cl)cc(Cl)c1Cl,T/C,[1],104 % of control
same,T/C,[2],95 % of control
same,T/C,[3],110 % of control
same,T/C,[4],114 % of control
same,T/C,[5],93 % of control
FC1(F)SC2c3ccccc3CC2C1(F)F (configuration not stated),T/C,[6],97 % of control
same,T/C,[7],101 % of control
same,T/C,"dose: 400.0 mg/kg/injection, schedule: Q01DX009 (ip), vehicle: Klucel (hydroxypropylcellulose) (HPC)",95 % of control
CCCCCCCCCCCCCCCCNC(=S)N/N=C/C(C)=N/NC(=S)NCCCCCCCCCCCCCCCC,T/C,"dose: 15.0 mg/kg/injection, schedule: Q01DX Z (ip), vehicle: carboxymethylcellulose (CMC)",101 % of control
same,T/C,"dose: 30.0 mg/kg/injection, schedule: Q01DX Z (ip), vehicle: carboxymethylcellulose (CMC)",107 % of control
same,T/C,"dose: 60.0 mg/kg/injection, schedule: Q01DX Z (ip), vehicle: carboxymethylcellulose (CMC)",100 % of control and 104 % of control
same,T/C,"dose: 120.0 mg/kg/injection, schedule: Q01DX Z (ip), vehicle: carboxymethylcellulose (CMC)",95 % of control and 98 % of control
same,T/C,"dose: 240.0 mg/kg/injection, schedule: Q01DX Z (ip), vehicle: carboxymethylcellulose (CMC)",100 % of control
CCCNC(=O)Oc1ccc(-c2ccccc2)cc1Cl,T/C,[8],113 % of control
same,T/C,[9],100 % of control
same,T/C,[10],97 % of control
O=C(Cc1ccccc1)NC1=C(Cl)C(=O)c2ccccc2C1=O,T/C,[2],89 % of control
same,T/C,[4],101 % of control
same,T/C,[5],88 % of control
CC1(C)C(=O)C(=O)C2CCCCC21 (configuration not stated),T/C,[1],97 % of control
same,T/C,[3],110 % of control
same,T/C,[11],92 % of control
NC(=O)c1nccc2ccccc12,T/C,[12],110 % of control
same,T/C,[13],107 % of control
same,T/C,[14],98 % of control
C[CH2][Sn]([CH2]C)([CH2]C)[O]C(=O)CO,T/C,"dose: 3.12 mg/kg/injection, schedule: Q04DX002 (ip), vehicle: saline",93 % of control
same,T/C,"dose: 6.25 mg/kg/injection, schedule: Q04DX002 (ip), vehicle: saline",117 % of control
same,T/C,"dose: 12.5 mg/kg/injection, schedule: Q04DX002 (ip), vehicle: saline",104 % of control
CSc1ccc(NCN2C(=O)c3ccccc3C2=O)cc1,T/C,[6],102 % of control
same,T/C,[7],100 % of control
CC(C)(C)NC(=O)NC(C)(C)C,T/C,"dose: 50.0 mg/kg/injection, schedule: Q04DX002 (ip), vehicle: Klucel (hydroxypropylcellulose) (HPC)",95 % of control
same,T/C,[15],92 % of control
same,T/C,[16],103 % of control
O=C(OC(=Nc1ccccc1)N(c1ccccc1)c1ccccc1)c1ccccc1,T/C,[12],91 % of control
same,T/C,[13],95 % of control
same,T/C,[14],94 % of control
NCCc1cnc(N=Nc2ccc(S(N)(=O)=O)cc2)[nH]1,T/C,[2],93 % of control
same,T/C,[4],96 % of control
same,T/C,[5],86 % of control
CC(C)=CC/C(C)=C/C=N\Nc1ccc([N+](=O)[O-])cc1[N+](=O)[O-],T/C,[2],98 % of control
same,T/C,[4],95 % of control
same,T/C,[5],93 % of control
Nc1c(Cl)ncnc1Nc1ccc([N+](=O)[O-])cc1,T/C,"dose: 100.0 mg/kg/injection, schedule: Q01DX001 (ip), vehicle: Klucel (hydroxypropylcellulose) (HPC)",89 % of control
same,T/C,"dose: 200.0 mg/kg/injection, schedule: Q01DX001 (ip), vehicle: Klucel (hydroxypropylcellulose) (HPC)",94 % of control
same,T/C,"dose: 400.0 mg/kg/injection, schedule: Q01DX001 (ip), vehicle: Klucel (hydroxypropylcellulose) (HPC)",92 % of control
CCCCCCCCCCCCCCCCCCNC(=O)Nc1ccc(SC)cc1,T/C,[15],101 % of control
same,T/C,[16],96 % of control
same,T/C,[17],101 % of control
Cc1cccc(-n2cnc3c(=O)[nH]c(N)nc32)c1,T/C,[18],95 % of control
same,T/C,[19],95 % of control
same,T/C,[20],93 % of control
CCOC(=O)c1ccc(NC(=O)c2cccc(F)c2)cc1,T/C,"dose: 100.0 mg/kg/injection, schedule: Q04DX002 (ip), vehicle: saline",91 % of control
same,T/C,"dose: 200.0 mg/kg/injection, schedule: Q04DX002 (ip), vehicle: saline",105 % of control
same,T/C,"dose: 400.0 mg/kg/injection, schedule: Q04DX002 (ip), vehicle: saline",109 % of control
O=[N+]([O-])c1ccc(N2CCCCC2)cc1,T/C,"dose: 100.0 mg/kg/injection, schedule: Q01DX001 (ip), vehicle: other",108 % of control
same,T/C,[18],107 % of control
same,T/C,"dose: 200.0 mg/kg/injection, schedule: Q01DX001 (ip), vehicle: other",90 % of control
same,T/C,[19],104 % of control
same,T/C,"dose: 222.0 mg/kg/injection, schedule: Q01DX Z (ip), vehicle: methylcellulose (MC)",102 % of control
same,T/C,"dose: 333.0 mg/kg/injection, schedule: Q01DX Z (ip), vehicle: methylcellulose (MC)",94 % of control
same,T/C,"dose: 400.0 mg/kg/injection, schedule: Q01DX001 (ip), vehicle: other",103 % of control
same,T/C,[20],107 % of control
same,T/C,"dose: 500.0 mg/kg/injection, schedule: Q01DX Z (ip), vehicle: methylcellulose (MC)",100 % of control
C=CCNC(=O)/C=C\C(=O)O,T/C,[15],99 % of control
same,T/C,[16],96 % of control
COc1cc(NS(C)(=O)=O)ccc1Nc1c2ccccc2nc2cc(C(F)(F)F)c(N)cc12,T/C,"dose: 50.0 mg/kg/injection, schedule: Q01DX009 (ip), vehicle: Klucel (hydroxypropylcellulose) (HPC)",113 % of control and 123 % of control
same,T/C,"dose: 50.0 mg/kg/injection, schedule: Q04DX003 (ip), vehicle: Klucel (hydroxypropylcellulose) (HPC)",118 % of control
same,T/C,[18],123 % of control
same,T/C,[7],153 % of control and 174 % of control
same,T/C,[16],162 % of control
same,T/C,[17],179 % of control
same,T/C,[20],112 % of control
Cc1ccc(C)c(S(N)(=O)=O)c1,T/C,[15],106 % of control
same,T/C,[16],100 % of control
same,T/C,[17],103 % of control
Sc1cc(Cl)c(Cl)cc1Cl,T/C,"dose: 100.0 mg/kg/injection, schedule: Q01DX001 (ip), vehicle: saline with Tween-80",97 % of control
same,T/C,"dose: 200.0 mg/kg/injection, schedule: Q01DX001 (ip), vehicle: saline with Tween-80",90 % of control
O=C1CSCC(=O)N1,T/C,"dose: 100.0 mg/kg/injection, schedule: Q01DX009 (ip), vehicle: saline",102 % of control
same,T/C,"dose: 200.0 mg/kg/injection, schedule: Q01DX009 (ip), vehicle: saline",97 % of control
same,T/C,"dose: 400.0 mg/kg/injection, schedule: Q01DX009 (ip), vehicle: saline",103 % of control
CCCCOC(=O)CNC(=O)c1ccc([N+](=O)[O-])s1,T/C,"dose: 50.0 mg/kg/injection, schedule: Q01DX005 (ip), vehicle: saline",102 % of control
same,T/C,"dose: 100.0 mg/kg/injection, schedule: Q01DX005 (ip), vehicle: saline",98 % of control
same,T/C,"dose: 400.0 mg/kg/injection, schedule: Q01DX005 (ip), vehicle: saline",91 % of control
CN(C)c1ccccc1C(=O)N/N=C\c1ccc(O)c(O)c1,T/C,[1],87 % of control
same,T/C,[8],94 % of control
same,T/C,[3],87 % of control
same,T/C,[9],94 % of control
same,T/C,[11],90 % of control
same,T/C,[10],90 % of control
